# From PubChem BioAssay (NCI)
#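 Compound exposure: 48 hours, 5 concentrations, 96-well plates. GI50: concentration for 50% inhibition of growth. TGI marks complete inhibition of growth.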
# Legend:
# Experiment in all cases: NCI-60 cell line screen, 48 h
# [1] = test system: IGROV1 ovarian
# [2] = test system: OVCAR-5 ovarian
# [3] = test system: SK-MEL-2 melanoma
# [4] = test system: RPMI-8226 leukemia
# [5] = test system: TK-10 renal
# [6] = test system: SK-MEL-5 melanoma
# [7] = test system: SF-268 CNS
# [8] = test system: LOX IMVI melanoma
# [9] = test system: OVCAR-3 ovarian
# [10] = test system: A549 NSCLC
Compound,GI50 [1] [µM],TGI [1] [µM],GI50 [2] [µM],TGI [2] [µM],GI50 [3] [µM],TGI [3] [µM],GI50 [4] [µM],TGI [4] [µM],GI50 [5] [µM],TGI [5] [µM],GI50 [6] [µM],TGI [6] [µM],GI50 [7] [µM],TGI [7] [µM],GI50 [8] [µM],TGI [8] [µM],GI50 [9] [µM],TGI [9] [µM],GI50 [10] [µM],TGI [10] [µM]
C=CCOc1cccc(/C=C2\SC(=Nc3ccc(O)cc3)NC2=O)c1,0.543,22.8,2.32,24.9,2.91,18.5,0.372,3.1,4.57,18.8,0.555,2.44,1.44,> 22.6,0.543,12.7,0.284,3.15,0.717,14.9
N#C/C(=C\c1ccc(O)c(O)c1)C(N)=S,,> 100,,> 100,,> 100,,> 100,,> 100,,> 100,,> 100,,> 100,,> 100,,> 100
CCCCCCCCCCCCCCCCN1CC2CCCCC2C1 (stereo not given),3.58,12.2,5.33,18.8,12.1,26.3,1.97,4.06,11.2,26.1,5.84,19.5,69.2,> 100,3.77,13.8,17.6,34.1,4.09,17
COc1cccc2c1c(C(=O)C(=O)Nc1cc(C)no1)cn2Cc1ccc(F)cc1,3.68,> 45.8,> 55.5,> 100,8.48,> 87.3,2.11,> 24.2,15.3,> 100,3.08,25.6,8.73,> 100,7.87,> 100,2.62,> 27.3,23.8,> 100
CCOC(=O)c1cc(NS(=O)(=O)c2ccccc2)cc(C(=O)OCC)c1,> 100,> 100,> 100,> 100,> 100,> 100,> 100,> 100,> 100,> 100,> 100,> 100,> 100,> 100,> 100,> 100,> 100,> 100,> 100,> 100
O=C(N/C(=C\c1ccc2c(c1)OCO2)c1nc2ccccc2[nH]1)c1ccccc1,,77.3,,> 100,,55.9,,83.9,,92.3,,29.9,,> 100,,> 100,,81.9,,> 100
Oc1cccc2ccc(N/N=C/c3cc(CN4CCCCC4)c(O)c4ncccc34)nc12,0.173,18.4,0.0639,13,0.0288,0.0814,0.0371,9.29,0.0527,11,0.0239,0.0559,0.0635,13.4,0.0553,1.61,0.0858,1.74,0.0365,1.15
COc1ccc(-c2nc3sc4c(c3c(=O)[nH]2)CCCCCC4)cc1,6.38,> 33.2,> 33.2,> 33.2,2.83,23.5,> 33.2,> 33.2,> 33.2,> 33.2,2.52,> 33.2,13.9,> 33.2,3.12,> 33.2,1.91,> 33.2,2.94,> 33.2
COc1cc(C(=O)C/C(CCCC(=O)Nc2ccccc2[N+](=O)[O-])=N/NC(=O)c2cc3ccccc3cc2O)ccc1O,,> 100,,> 100,,> 100,,> 100,,> 100,,> 83.7,,> 100,,> 65.4,,> 100,,> 100
COC(=O)[C@@]1(C)CC[C@]2(C)CC[C@]3(C)C4=CC=C5C(=CC(=O)C(O)=C5C)[C@]4(C)[C@@H](O)C[C@@]3(C)[C@@H]2C1,6.73,19.1,12.9,24.5,11.2,23.2,5.17,27.7,4.77,15.7,16.5,32.6,9.62,22.2,10.4,21.3,8.63,18.5,15.9,30.1
NCCn1c(=O)[nH]c(=O)[nH]c1=S,> 100,> 100,> 100,> 100,> 100,> 100,> 100,> 100,> 100,> 100,> 100,> 100,> 100,> 100,> 100,> 100,> 100,> 100,> 100,> 100
